Where two headings read alike, the source gives them in different places.
What was measured:
PDE10A = PDE10A (Homo sapiens, UniProt Q9Y233); assay: LabChip microfluidic mobility-shift assay, IC50 against PDE10A; format: biochemical; settings: eight concentrations 0.1 nM to 300 nM, duplicate
Procedure: IC50 determination was assessed using LabChip® microfluid technology (PerkinElmer, Hopkinton, MA, United States) in line with the service-provider’s protocol. CPL500036 was tested at eight concentrations ranging from 0.1 nM to 300 nM. The assay was run on the EZ Reader™ II platform (Caliper Life Sciences, Hopkinton, MA, United States). After the incubation period, levels of the reaction products and remaining substrate were measured. Analyzed data were from duplicate measurement, and IC50 was determined using a variable slope with Prism 5 (GraphPad, San Diego, CA, United States).

[1] = tested on: Salmonella typhimurium TA98; assay: Ames test; settings: CPL500036 5000µg/plate, n=3
[2] = tested on: Salmonella typhimurium TA1535; settings: CPL500036 5000µg/plate, n=3
[3] = Plasma protein binding (equilibrium dialysis); format: in vitro ADME, rats
Procedure: The plasma protein binding study was carried out by Eurofins (Poitiers, France) according to the service-provider’s protocol. Briefly, the protein matrix was spiked with the test compound at 10 μM (n = 2) with a final DMSO concentration of 1%. The dialysate compartment was loaded with phosphate buffered saline (PBS, pH 7.4) and the sample side was loaded with equal volume of the spiked protein matrix. The dialysis plate was incubated at 37°C for 4 h. After the incubation, samples were taken from each compartment, diluted with the phosphate buffer followed by addition of acetonitrile and centrifugation. The supernatants were then used for HPLC-MS/MS analysis. Acebutolol, quinidine, and warfarin were tested as reference.

[4] = Pharmacokinetics after oral gavage in rats (plasma and brain); format: in vivo, Wistar Han rats; settings: for AUC(0-t): read-out: AUC(0–24h)
Procedure: The study was carried out in 40 male Wistar Han rats (∼10 weeks; Tri-City Academic Laboratory Animal Centre, Research and Services Centre, Medical University of Gdansk). Rats were fasted for 12 h (water was available at libitum) before administration and fed 4 h post-dose. Rats received CPL500036 (3 mg/kg per oral gavage). At each of eight time points (15 min, 30 min as well as 1 h, 2 h, 4 h, 7 h, 12 h, and 24 h), five rats were killed by exsanguination, and samples of blood and brain were harvested. Two male and two female Beagle dogs (10.5–13 months old, MediTox s.r.o., Konarovice, Czech Republic) received CPL500036 in a dose of 1.5 mg/kg per oral gavage. Blood was taken by venepuncture from v. cephalica antebrachii at twelve time points (0 min, 15 min, 30 min as well as 1 h, 2 h, 3 h, 4 h, 6 h, 8 h, 12 h, 24 h, and 48 h.
Blood was collected into tubes containing the anticoagulant K2EDTA and centrifuged (2,000 × g, 15 min, 4°C) to obtain plasma. Brain samples were homogenized in water. Plasma and brain homogenates were stored at −80°C until analyses. Acetonitrile (150 μl) spiked with internal standard (donepezil; MilliporeSigma) was added to 50 μl of each plasma homogenate or brain homogenate, respectively. The mixture was shaken vigorously for 2 min and then centrifuged (4,000 × g, 4 min, room temperature). Supernatants were injected into a high-performance liquid chromatography system (Infinity™ 1,260; Agilent Technologies, Santa Clara, CA, United States) with a Zorbax SB column ([…]; 1.8 μm; Agilent Technologies). The mobile phase was ammonium formate (20 mM, pH 3.0) and acetonitrile with 0.1% formic acid. The gradient chromatographic separation used a flow rate of 0.4 ml/min for 7.5 min at a nominal temperature of 30°C. Signal acquisition was undertaken for 5.5 min using of a triple quadrupole mass spectrometer (6,460 series; Agilent Technologies) with electrospray ionization (5500 V, 320°C). Multiple-reaction monitoring was applied to detect the following transitions of the m/z ratio: 342.0–220.9 and 342–235.9 for CPL500036; 380.5–362.9 and 380.5–243.5 for donepezil. The drug concentration was calculated from the ratio of the peak area response relative to the internal standard using a standard curve.

Sprague–Dawley rats = assay: Catalepsy bar test; format: in vivo; settings: p.o.
Procedure: Sprague–Dawley rats (∼300 g; Charles River Laboratories, Wilmington, MA, United States) (n = 8–12/group) were treated (p.o.) with vehicle or CPL500036 (0.15 mg/kg, 0.3 mg/kg, 0.6 mg/kg or 2 mg/kg). As a positive control causing catalepsy, haloperidol (1 mg/kg, i.p.) was employed. One hour following drug administration, catalepsy (prolonged maintenance of an externally imposed abnormal posture) was assessed using the bar test as described by Ionova and Severtsev ([Ionov and Severtsev, 2012]). Testing was accomplished by placing each rat in an upright position with his forepaws resting on a horizontal bar (0.9 cm in diameter) suspended in a wooden frame 7.5 cm above the cage floor. The rat was allowed to keep his forepaws on the bar for a measurement lasting for 30 s. The latency to remove both forepaws from the bar was measured with a hand-held stopwatch. The test was repeated for each rat every 30 min up to 240 min. Rats were returned to their home cages between tests. Each rat was tested twice, at an interval of 1 week.

[5] = With metabolic activation (+S9 mix), 2AA 2µg/plate
[6] = Without metabolic activation (-S9 mix), NPD 4µg/plate
[7] = Without metabolic activation (-S9 mix), SAZ 2µg/plate
[8] = male, Wistar Han, rat brain, 3 mg/kg oral gavage, mean ± SD
[9] = male, Wistar Han, rat plasma, 3 mg/kg oral gavage, mean ± SD

PDE10A, sequence (Q9Y233 whole entry, species assumed): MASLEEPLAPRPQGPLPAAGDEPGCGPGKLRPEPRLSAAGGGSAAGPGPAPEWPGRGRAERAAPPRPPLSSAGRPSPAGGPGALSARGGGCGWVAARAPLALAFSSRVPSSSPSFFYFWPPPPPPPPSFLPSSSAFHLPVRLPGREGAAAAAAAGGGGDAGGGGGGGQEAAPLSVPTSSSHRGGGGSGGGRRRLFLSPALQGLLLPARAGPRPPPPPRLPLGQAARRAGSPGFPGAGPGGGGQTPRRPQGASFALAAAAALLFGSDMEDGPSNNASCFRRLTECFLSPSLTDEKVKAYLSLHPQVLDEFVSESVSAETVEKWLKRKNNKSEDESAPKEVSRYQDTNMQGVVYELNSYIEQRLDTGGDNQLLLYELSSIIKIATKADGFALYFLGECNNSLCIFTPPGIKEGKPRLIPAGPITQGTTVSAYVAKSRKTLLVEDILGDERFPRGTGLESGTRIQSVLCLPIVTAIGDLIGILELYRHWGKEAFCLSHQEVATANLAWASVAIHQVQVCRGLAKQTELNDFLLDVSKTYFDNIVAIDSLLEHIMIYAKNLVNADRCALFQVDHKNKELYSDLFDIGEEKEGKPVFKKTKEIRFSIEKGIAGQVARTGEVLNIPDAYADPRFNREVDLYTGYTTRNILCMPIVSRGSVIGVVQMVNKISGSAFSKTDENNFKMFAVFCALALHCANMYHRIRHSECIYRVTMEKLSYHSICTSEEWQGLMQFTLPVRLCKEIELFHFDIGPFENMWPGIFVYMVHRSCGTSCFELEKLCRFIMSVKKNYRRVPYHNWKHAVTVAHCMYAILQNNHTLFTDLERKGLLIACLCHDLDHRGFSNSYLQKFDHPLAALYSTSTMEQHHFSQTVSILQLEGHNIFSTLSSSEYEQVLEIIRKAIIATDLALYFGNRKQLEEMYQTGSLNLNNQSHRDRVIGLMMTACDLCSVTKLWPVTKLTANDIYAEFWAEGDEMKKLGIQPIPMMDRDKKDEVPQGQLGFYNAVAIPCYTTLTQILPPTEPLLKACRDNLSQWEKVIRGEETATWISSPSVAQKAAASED

Cc1ncc(C)n2nc(-c3ccn4cc(-c5ccccc5)nc4n3)nc12 [CPL500036, 7-[5,8-Dimethyl-(1,2,4)triazolo (1,5-a)pyrazin-2-yl]-2-phenylimidazo (1,2-a) pyrimidine]
IC50 (PDE10A): 1 nM
Mutation rate [1, 5]: 0.92
Revertants Mean±SD [1, 5]: 18.3±8.02
Mutation rate [1, 6]: 0.74
Revertants Mean±SD [1, 6]: 14.3±1.15
Mutation rate [2, 5]: 0.6
Revertants Mean±SD [2, 5]: 8.3±5.13
Mutation rate [2, 7]: 1.13
Revertants Mean±SD [2, 7]: 12.0±5.57
free concentration of CPL500036 in rats ([3]; based on the plasma protein binding and pharmacokinetic data): 5%
fraction unbound at 4 h, 10 µM ([3]; rat, plasma, pH 7.4, rats, 10 μM, 37°C, 4 h, n = 2): 0.08
bioavailability ([4]; Wistar rats, 3 mg/kg, p.o.): good bioavailability
Kp ([4]; male, Wistar Han, brain/plasma, rat, 3 mg/kg oral gavage, mean ± SD, read-out: B/P (brain to plasma ratio)): 0.49 ± 0.06
Cmax [4, 8]: 94.3 ± 28.5 ng/g
Tmax [4, 8]: 6.8 ± 3.3 h
AUC(0-t) [4, 8]: 844 ± 202 ng·h/mL
Cmax [4, 9]: 238 ± 98.1 ng/mL
Tmax [4, 9]: 5.8 ± 1.6 h
half-life [4, 9]: 6.4 ± 6.2 h
AUC(0-t) [4, 9]: 1620 ng·h/mL
catalepsy, bar test (Sprague–Dawley rats; 0.15 mg/kg, 60 min–240 min after administration): did not induce catalepsy
catalepsy, bar test (Sprague–Dawley rats; 0.3 mg/kg, appeared only at 210 min and 240 min): low cataleptogenic effect
catalepsy, bar test (Sprague–Dawley rats; 0.6 mg/kg, 60 min–240 min after administration): apparent 120 min–240 min following administration, but did not achieve the level elicited by haloperidol
catalepsy, bar test (Sprague–Dawley rats; 2 mg/kg, compared with haloperidol 1 mg/kg, i.p.): strong cataleptogenic effect comparable with that of haloperidol
minimum effective dose (MED) needed to elicit catalepsy (Sprague–Dawley rats; from AUC data of the duration of catalepsy): 0.6 mg/kg

Reference: paper PMC9681820, “A PDE10A inhibitor CPL500036 is a novel agent modulating striatal function devoid of most neuroleptic side-effects” (Frontiers in Pharmacology, 2022)
